The test system of test [1] is B16. Put plainly: Mean % inhibition of lymph node metastasis in B16 mouse administration. The test is classed as functional.
In test [2] the test system is B16. Put plainly: Mean % inhibition of primary tumor growth in B16 mouse administration. The test is classed as functional.
Test [3] in a line: Mean % inhibition of induced angiogenesis by Vascular endothelial growth factor (VEGF) at a peroral dose of 50 mg/kg in mice. Type of test: functional. Conditions: Mus musculus, route oral.
Test [4] deals with Cyclin-dependent kinase 1 (Homo sapiens, UniProt P06493). Briefly: In vitro inhibition of Cyclin-dependent kinase 1 (CDK-1) expressed in baculovirus.
The target of test [5] is Insulin-like growth factor 1 receptor (Homo sapiens, UniProt P08069). Briefly: In vitro inhibition of Insulin-like growth factor I receptor expressed in baculovirus.
For test [6], the target named is Hepatocyte growth factor receptor (Homo sapiens, UniProt P08581). Put plainly: In vitro inhibition of Met proto-oncogene tyrosine kinase (c-Met) expressed in baculovirus.
In test [7] the target is Angiopoietin-1 receptor (Homo sapiens, UniProt Q02763). Put plainly: In vitro inhibition of Tyrosine protein kinase receptor TIE-2 (Tek) expressed in baculovirus.
Test [8] addresses Vascular endothelial growth factor receptor 3 (Homo sapiens, UniProt P35916). Put plainly: In vitro inhibition of Vascular endothelial growth factor receptor 3 [VEGFR-3(Flt-4)] expressed in baculovirus.
Test [9] deals with Macrophage colony-stimulating factor 1 receptor (Homo sapiens, UniProt P07333).
In test [10] the target is Fibroblast growth factor receptor 1 (Homo sapiens, UniProt P11362).
Test [11] deals with Mast/stem cell growth factor receptor Kit (Homo sapiens, UniProt P10721).
The target of test [12] is Platelet-derived growth factor receptor beta (Homo sapiens, UniProt P09619).
In test [13] the target is Vascular endothelial growth factor receptor 1 (Homo sapiens, UniProt P17948).
The target of test [14] is T1, Vascular endothelial growth factor receptor 2 (Homo sapiens, UniProt P35968).
Test [15] has as its target Proto-oncogene tyrosine-protein kinase Src (Homo sapiens, UniProt P12931).
Test [16] concerns the target Tyrosine-protein kinase ABL1 (Homo sapiens, UniProt P00519).
Test [17] addresses T1, Vascular endothelial growth factor receptor 2. This is another data set of the same source.
The species entered for test [18] is Mus musculus.
For test [19], the species on record is Mus musculus. The source holds these as a separate data set.
The species named for test [20] is Mus musculus. The source holds these as a separate data set.
The species named for test [21] is Mus musculus. This is another data set of the same source.
The test system of test [22] is B16. Put plainly: Mean % inhibition of lymph node metastasis in B16 mouse administration. Type of test: functional.
Test [23] has as its target Fibroblast growth factor receptor 1 (Mus musculus) (UniProt P16092). Briefly: Mean % inhibition of induced angiogenesis by Heparin-binding growth factor 2 after intraperitoneal dose of 100 mg/kg in mice. The test is classed as functional, organism-based. Further details: dose 100 mg/kg.
The nature of test [24]: Mean % inhibition of induced angiogenesis by Vascular endothelial growth factor (VEGF) after intraperitoneal dose of 100 mg/kg in mice. The test is classed as functional. Conditions: Mus musculus, ip.

“And” between values parts separate entries of the source, which are not always exact repeats. Equal values may be shown once.

For orientation: Inhibition means how much of the control response was suppressed. A lower Inhibition goes with little suppression. What is called inhibition in vivo is how much of the control response was suppressed. A high value points to a response far below the control. By IC50 is commonly meant the midpoint of a concentration-inhibition curve. Lower therefore signals higher potency. The term inhibition denotes the share of the control response that was lost under treatment. Higher therefore signals strong suppression.

Sequence of Cyclin-dependent kinase 1 (P06493 whole entry): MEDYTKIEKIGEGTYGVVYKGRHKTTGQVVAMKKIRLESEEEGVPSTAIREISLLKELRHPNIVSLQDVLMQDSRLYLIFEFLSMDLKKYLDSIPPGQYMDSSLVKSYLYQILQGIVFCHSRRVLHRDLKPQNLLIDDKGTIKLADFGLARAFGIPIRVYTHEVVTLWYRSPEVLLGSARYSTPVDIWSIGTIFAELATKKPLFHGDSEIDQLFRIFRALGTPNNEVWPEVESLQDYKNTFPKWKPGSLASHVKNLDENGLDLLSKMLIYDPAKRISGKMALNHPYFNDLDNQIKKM
Sequence of Insulin-like growth factor 1 receptor (P08069 31-736 limits assumed): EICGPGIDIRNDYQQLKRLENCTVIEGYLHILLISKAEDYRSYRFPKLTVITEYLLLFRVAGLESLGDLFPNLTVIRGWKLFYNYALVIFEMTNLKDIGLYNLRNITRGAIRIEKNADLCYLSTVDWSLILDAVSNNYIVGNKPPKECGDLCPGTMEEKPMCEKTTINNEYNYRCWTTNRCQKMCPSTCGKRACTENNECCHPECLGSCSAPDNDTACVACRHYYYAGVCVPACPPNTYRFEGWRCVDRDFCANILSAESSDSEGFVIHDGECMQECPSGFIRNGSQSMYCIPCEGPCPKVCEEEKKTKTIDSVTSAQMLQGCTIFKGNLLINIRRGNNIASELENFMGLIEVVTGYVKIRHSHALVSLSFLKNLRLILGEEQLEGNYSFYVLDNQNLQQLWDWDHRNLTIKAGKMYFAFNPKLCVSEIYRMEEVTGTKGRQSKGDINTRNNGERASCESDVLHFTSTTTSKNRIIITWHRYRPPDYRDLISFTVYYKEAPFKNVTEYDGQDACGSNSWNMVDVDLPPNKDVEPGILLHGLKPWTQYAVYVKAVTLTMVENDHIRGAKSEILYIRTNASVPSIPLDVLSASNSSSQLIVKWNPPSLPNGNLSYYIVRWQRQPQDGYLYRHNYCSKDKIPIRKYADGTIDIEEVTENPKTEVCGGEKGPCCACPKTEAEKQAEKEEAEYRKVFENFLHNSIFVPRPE
Sequence of Insulin-like growth factor 1 receptor (P08069 741-1367 limits assumed): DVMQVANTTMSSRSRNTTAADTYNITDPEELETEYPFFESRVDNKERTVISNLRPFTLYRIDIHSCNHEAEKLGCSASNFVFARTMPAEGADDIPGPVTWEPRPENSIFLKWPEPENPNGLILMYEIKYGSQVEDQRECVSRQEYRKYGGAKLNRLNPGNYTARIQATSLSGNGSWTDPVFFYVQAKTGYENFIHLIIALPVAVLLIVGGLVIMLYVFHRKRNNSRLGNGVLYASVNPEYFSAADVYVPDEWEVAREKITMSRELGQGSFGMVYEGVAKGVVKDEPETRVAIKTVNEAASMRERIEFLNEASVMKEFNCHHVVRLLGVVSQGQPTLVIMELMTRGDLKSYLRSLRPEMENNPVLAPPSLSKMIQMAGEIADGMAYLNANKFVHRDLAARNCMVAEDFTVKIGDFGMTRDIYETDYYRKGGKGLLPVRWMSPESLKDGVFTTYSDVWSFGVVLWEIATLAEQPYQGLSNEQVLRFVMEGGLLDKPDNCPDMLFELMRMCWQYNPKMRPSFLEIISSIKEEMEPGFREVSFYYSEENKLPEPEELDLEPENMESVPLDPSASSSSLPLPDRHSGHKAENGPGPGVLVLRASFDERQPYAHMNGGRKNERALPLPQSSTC
Sequence of Angiopoietin-1 receptor (Q02763 whole entry): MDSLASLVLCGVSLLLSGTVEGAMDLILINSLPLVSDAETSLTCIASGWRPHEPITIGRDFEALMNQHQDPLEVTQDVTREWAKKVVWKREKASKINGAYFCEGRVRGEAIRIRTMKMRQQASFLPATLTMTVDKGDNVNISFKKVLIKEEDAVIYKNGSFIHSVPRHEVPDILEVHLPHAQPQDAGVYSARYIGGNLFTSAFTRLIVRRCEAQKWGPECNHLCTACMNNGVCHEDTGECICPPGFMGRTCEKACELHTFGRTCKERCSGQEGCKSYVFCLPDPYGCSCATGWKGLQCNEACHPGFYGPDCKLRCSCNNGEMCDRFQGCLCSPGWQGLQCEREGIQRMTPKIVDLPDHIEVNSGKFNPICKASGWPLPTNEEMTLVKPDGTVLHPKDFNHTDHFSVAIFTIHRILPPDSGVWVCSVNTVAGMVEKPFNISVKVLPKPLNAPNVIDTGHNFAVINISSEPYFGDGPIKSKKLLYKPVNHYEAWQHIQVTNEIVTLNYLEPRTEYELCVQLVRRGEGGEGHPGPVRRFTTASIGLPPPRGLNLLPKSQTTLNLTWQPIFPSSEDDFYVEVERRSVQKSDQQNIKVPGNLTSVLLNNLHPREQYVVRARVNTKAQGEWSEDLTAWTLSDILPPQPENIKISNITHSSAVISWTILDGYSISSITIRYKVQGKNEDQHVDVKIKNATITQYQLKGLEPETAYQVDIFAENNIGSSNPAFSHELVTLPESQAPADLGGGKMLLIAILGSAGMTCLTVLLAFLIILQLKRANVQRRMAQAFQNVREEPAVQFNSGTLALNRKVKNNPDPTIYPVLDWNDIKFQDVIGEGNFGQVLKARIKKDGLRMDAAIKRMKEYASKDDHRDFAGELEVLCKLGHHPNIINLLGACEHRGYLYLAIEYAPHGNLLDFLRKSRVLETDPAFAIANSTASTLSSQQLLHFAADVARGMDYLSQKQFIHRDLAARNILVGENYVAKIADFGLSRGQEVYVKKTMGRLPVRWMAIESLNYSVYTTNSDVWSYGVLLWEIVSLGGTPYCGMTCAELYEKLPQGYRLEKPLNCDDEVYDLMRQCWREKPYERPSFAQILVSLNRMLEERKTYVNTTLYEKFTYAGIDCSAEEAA
Sequence of Proto-oncogene tyrosine-protein kinase Src (P12931 2-536 limits assumed): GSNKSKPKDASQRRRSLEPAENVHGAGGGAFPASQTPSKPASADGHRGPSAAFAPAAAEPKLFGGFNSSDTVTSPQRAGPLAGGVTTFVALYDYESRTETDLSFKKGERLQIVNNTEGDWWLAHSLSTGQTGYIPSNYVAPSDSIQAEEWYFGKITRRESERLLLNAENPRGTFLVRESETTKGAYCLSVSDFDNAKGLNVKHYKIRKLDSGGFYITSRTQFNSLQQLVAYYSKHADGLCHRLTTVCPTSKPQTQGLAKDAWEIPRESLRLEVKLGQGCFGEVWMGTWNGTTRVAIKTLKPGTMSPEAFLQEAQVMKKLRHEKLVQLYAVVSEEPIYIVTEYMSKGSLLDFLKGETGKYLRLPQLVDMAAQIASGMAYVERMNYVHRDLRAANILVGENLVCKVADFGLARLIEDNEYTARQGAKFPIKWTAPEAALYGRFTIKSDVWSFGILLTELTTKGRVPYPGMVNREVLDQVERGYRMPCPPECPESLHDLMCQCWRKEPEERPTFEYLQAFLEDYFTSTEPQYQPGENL
Sequence of Hepatocyte growth factor receptor (P08581 whole entry, looked up): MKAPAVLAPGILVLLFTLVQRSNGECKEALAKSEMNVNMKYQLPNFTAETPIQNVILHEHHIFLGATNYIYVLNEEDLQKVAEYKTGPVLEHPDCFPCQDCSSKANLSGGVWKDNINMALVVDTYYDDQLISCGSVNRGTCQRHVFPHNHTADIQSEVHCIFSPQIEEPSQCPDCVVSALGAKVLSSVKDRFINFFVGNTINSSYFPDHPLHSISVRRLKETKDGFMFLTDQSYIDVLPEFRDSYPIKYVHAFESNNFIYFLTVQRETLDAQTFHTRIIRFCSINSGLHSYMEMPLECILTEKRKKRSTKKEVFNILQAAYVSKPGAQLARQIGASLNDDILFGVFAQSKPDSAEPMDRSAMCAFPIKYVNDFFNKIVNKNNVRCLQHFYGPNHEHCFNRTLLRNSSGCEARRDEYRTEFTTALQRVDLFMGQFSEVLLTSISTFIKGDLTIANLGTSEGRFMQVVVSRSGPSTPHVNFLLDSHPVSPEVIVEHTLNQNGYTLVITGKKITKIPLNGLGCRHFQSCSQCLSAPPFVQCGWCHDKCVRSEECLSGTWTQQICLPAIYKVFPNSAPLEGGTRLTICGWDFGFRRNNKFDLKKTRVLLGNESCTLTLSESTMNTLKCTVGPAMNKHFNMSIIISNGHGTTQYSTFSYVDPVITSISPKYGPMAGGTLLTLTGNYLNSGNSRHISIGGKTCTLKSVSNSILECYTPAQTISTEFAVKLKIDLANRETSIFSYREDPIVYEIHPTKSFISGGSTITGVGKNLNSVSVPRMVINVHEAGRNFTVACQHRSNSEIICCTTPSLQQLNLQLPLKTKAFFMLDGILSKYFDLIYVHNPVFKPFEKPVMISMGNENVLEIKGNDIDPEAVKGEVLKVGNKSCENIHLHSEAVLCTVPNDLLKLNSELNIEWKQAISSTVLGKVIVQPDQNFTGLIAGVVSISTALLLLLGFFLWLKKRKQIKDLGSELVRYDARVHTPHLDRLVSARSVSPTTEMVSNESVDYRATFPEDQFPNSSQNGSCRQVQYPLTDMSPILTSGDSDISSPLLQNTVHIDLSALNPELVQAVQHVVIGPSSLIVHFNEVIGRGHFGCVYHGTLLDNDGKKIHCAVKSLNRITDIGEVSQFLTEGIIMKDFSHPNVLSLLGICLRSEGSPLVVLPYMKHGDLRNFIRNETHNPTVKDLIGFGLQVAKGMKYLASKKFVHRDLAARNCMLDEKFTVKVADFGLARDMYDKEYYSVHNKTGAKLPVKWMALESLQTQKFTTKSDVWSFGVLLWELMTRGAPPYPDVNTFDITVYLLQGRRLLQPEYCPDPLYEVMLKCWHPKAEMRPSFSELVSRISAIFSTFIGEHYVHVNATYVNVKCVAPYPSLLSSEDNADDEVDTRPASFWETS

Turning to `Clc1ccc(Nc2nnc(Cc3ccncc3)c3ccccc23)cc1.O=C(O)CCC(=O)O`, the Inhibition in test [1] is listed as 55%; in [2], 34%. The inhibition in vivo at 50 mg/kg in test [3] came out at 68%.

Regarding `O=C(Nc1cccc(-c2cncc3ccccc23)c1)c1ccccc1NCc1ccncc1`, the Inhibition in test [2] was 39% and 73%. Further, the IC50 was greater than 10000 nM in [4]; 6400 nM in test [5]; greater than 10000 nM in test [6]; 6800 nM in test [7]; 52 nM in test [8]; 99 nM in [9]. The IC50 was 5100 nM in test [10]; 105 nM in test [11]; 357 nM in test [12]; 130 nM in test [13]; 1.16 nM in test [14]; greater than 10000 nM in test [15]. In addition, the IC50 in test [16] amounted to 5330 nM; in [17], 9 nM. 50 mg/kg produced 100% inhibition in vivo in [3]. For the same compound, the Plasma concentration in test [18] is 3.4 µM l-1; in test [19], 1.9 µM l-1; in test [20], 1.9 µM l-1; in [21], 1.6 µM l-1.

As for `O=C(Nc1cccc(C(F)(F)F)c1)c1ccccc1NCc1ccncc1`, the Inhibition is given as 85% in [1] and 44% in test [2]. For the same compound, the IC50 in test [4] is greater than 10000 nM; in test [5], greater than 10000 nM; in [6], greater than 10000 nM; in test [7], greater than 10000 nM; in [9], 380 nM; in [10], greater than 10000 nM. Also, the IC50 in test [11] was 236 nM; in test [15], greater than 10000 nM; in test [16], 2820 nM. This compound also gave an inhibition in vivo at 50 mg/kg in test [3] of 84%.

As to `COc1cc2/c(=N/c3ccc(Br)cc3F)nc[nH]c2cc1OCC1CCN(C)CC1` [VANDETANIB], the Inhibition in [22] amounted to 61%; in test [2] it was 60%. Moreover, testing at 50 mg/kg in test [3] gave an inhibition in vivo of 71%.

Regarding `Cc1cc(C)c(/C=C2\C(=O)Nc3ccccc32)[nH]1` [SEMAXANIB], the IC50 in test [4] is greater than 10000 nM; in test [5], greater than 10000 nM; in [7], greater than 10000 nM; in [8] it was 50 nM. Besides, the inhibition in test [23] is 87%. In addition, the inhibition in vivo at 100 mg/kg in [24] came out at 65%.

(Values after ChEMBL document CHEMBL1135689, “Anthranilic acid amides: a novel class of antiangiogenic VEGF receptor kinase inhibitors” (J Med Chem, 2002).)
